Patent publication US20090041719A1, “Method for screening therapeutic agent for glomerular disorder” (priority 2006, published 2009)
Where “and” joins values, the source holds several entries; their conditions need not be identical. Equal entries are not always repeated.

How the values were obtained:
FRP-1/CD98/4F2hc = experiment: FACScan of FRP-1/CD98/4F2hc expression on macrophage fraction of LPS-stimulated human PBMC (monoclonal antibodies 4-5-1, 6-1-3, HBJ-127); type: cell-based
4F2hc [1] = experiment: HAT heavy chain 4F2hc on large-monocyte fraction of LPS-stimulated human PBMC, peak value by FACScan (polyclonal antibody); type: cell-based
Procedure: (§1) In the same manner as in 1) to 5) of Experimental Example 1, to human peripheral blood mononuclear cells, the test compound (6-2) (final concentration: 10 nM) or the test compound (7-3) (final concentration: 100 nM) was added at the same time when LPS (final concentration: 80 μg/ml) was added, followed by 6-day culture. Further, in the same manner as above, using rabbit anti-human 4F2hc polyclonal antibodies (see Biol Pharm Bull 30:415-422, 2007) as a primary antibody, the peak value of HAT expressed on the fraction of large-macrophages (larger than monocyte macrophages) in human PBMC was measured by FACScan using a commercially available cell fix/cell membrane infiltration kit (trade name: BD Cytofix/Cytoperm™ Kit, catalog No. 554714, BD Biosciences).
(§2) As a control, the one with no test-compound addition was used, and as a rabbit anti-human rBAT (related to b^0,+-type amino acid transporter) polyclonal antibody, the one obtained by coupling a synthesized peptide composed of an amino-terminal of human rBAT (MAEDKSKRDSIEMSMKGC (SEQ ID NO: 2)) and a carboxyl-terminal of mouse b^0,+AT (BAT1) (CHLQMLEWPEKDPE (SEQ ID NO: 3)) to a carrier KLH (keyhole-limpet hemocyanin), and immunizing a rabbit with it.

rBAT [2] = experiment: HAT heavy chain rBAT on large-monocyte fraction of LPS-stimulated human PBMC, peak value by FACScan; type: cell-based
Procedure: as §1, §2

4F2hc [3] = experiment: 4F2hc on large-cell fraction of LPS-stimulated THP-1, peak value by FACScan; type: cell-based, human
Procedure: The same procedures as in Experimental Example 2 were taken except the following conditions: human leukemia culture cell line THP-1 was used instead of the human peripheral blood mononuclear cells; the final addition concentration of the test compound (6-2) was set to 100 nM, and the final addition concentration of the test compound (7-3) was set to 1000 nM; and fetal bovine serum was used instead of the human AB serum. The peak value of HAT expressed on the fraction of large-cells in human leukemia culture cell strain THP-1, compared with those not stimulated with LPS, was measured. As a control, the one with no test-compound addition was used, and the peak value of HAT was measured by FACScan using a commercially available cell fix/cell membrane infiltration kit (trade name: BD Cytofix/Cytopem™ Kit, catalog No. 554714, BD Bioscience).

4F2hc [4] = experiment: 4F2hc on large-cell fraction of interferon γ-stimulated THP-1, peak value by FACScan; type: cell-based, human
Procedure: (§3) The same procedures as in Experimental Example 2 were taken except the following conditions: human leukemia culture cell line THP-1 was used instead of the human peripheral blood mononuclear cells; the final addition concentration of the test compound (6-2) was set to 100 nM; fetal bovine serum was used instead of the human AB serum; and human recombinant interferon γ (PHP050, Serotec) (final concentration: 100 ng/ml) was used instead of LPS. Also, using rabbit anti-human 4F2hc polyclonal antibodies (see Biol Pharm Bull 30: 415-422, 2007) as the primary antibody, the peak value of HAT expressed on the fraction of large-cells in human leukemia culture cell strain THP-1, compared with those not stimulated with LPS, was measured. As a control, the one with no test-compound (DMSO alone) was used, and the rabbit anti-human rBAT polyclonal antibodies were obtained in the same manner as in Experimental Example 2.

rBAT [5] = experiment: rBAT on large-cell fraction of interferon γ-stimulated THP-1, peak value by FACScan; type: cell-based, human
Procedure: as §3

[6] = system: puromycin-induced acute nephrosis model; experiment: Puromycin-induced acute nephrosis model: urinary albumin excretion; type: in vivo, SD (Sprague-Dawley) rat
Procedure: It is known that a single intravenous dose of 50 mg/kg of puromycin to a 5-week-old SD (Sprague-Dawley) male rat damages the glomerular epithelial cells, causing severe proteinuria peaking from day 6 to day 14 and gradually decreasing thereafter, and again showing tubular proteinuria (see J. R. Diamond, and M. J. Karnovsky: Focal and segmental glomerulosclerosis following a single intravenous dose of puromycin aminonucleoside, Am. J. Pathol; 1986; 122; 481-487) (hereinafter, this model will be referred to as puromycin-induced acute nephrosis model). Using the above puromycin-induced acute nephrosis model as a model of glomerular lesions, the combinational effect of interferon γ and the composition for preventing, ameliorating, or treating glomerular lesions or disease of kidney was examined. To a 5-week-old SD (Sprague-Dawley) male rat, 30 mg/kg/day of said composition (6-2) was subcutaneously administered every day from five days before the administration of puromycin, and at the same time, 0.25 ml (2.3×10^4U) of rat recombinant interferon γ (by PeproTeck, final concentration: 9.09 μg/ml) was intraperitoneally administered on alternate days from five days before the administration of puromycin, followed by a single intravenous dose of 50 mg/kg of puromycin. Even after the administration of puromycin, the same amount of the composition (6-2) and the rat recombinant interferon γ were continuously administered every day and on alternate days respectively. On days 6, 12, and 19 after the administration of puromycin, 24-hour urine collection was performed to measure the amount of rat urinary albumin excretion by ELIZA method. At the same time, the urinary creatinine concentration was also measured by enzyme method. As indexes of glomerular epithelial damage, albumin excretion and the ratio of urinary albumin excretion to urinary creatinine were compared.

[7] = system: glomerular lesions; renal tubulointerstitial lesions; details: International Publication WO 2004/024185 and 01/72730 pamphlets; cited from earlier work
[8] = human PBMC + LPS 80 μg/ml, 6-day culture, test compound 10 nM
[9] = human PBMC + LPS, summary of Table 2
[10] = THP-1 + interferon γ, summary of Table 4

In the case of `O=C1CCC(F)(C(=O)OCc2ccccc2)O1` (stereo not shown) [Compound (6-2)], the “expression of the FRP-1/CD98/4F2hc molecule lowered to” value (FRP-1/CD98/4F2hc; a different normal human PBMC, where expression was enhanced to 90% or more, not shown in Table) is reported as no more than 5%, the “Migration of FRP-1/CD98/4F2hc expression of macrophage fraction by FACScan (migration rate %), monoclonal antibody 4-5-1 (FRP-1)” value (FRP-1/CD98/4F2hc; [8]) is reported as 32.7% and the “Migration of FRP-1/CD98/4F2hc expression of macrophage fraction by FACScan (migration rate %), monoclonal antibody 6-1-3 (FRP-1)” value (FRP-1/CD98/4F2hc; [8]) is reported as 29.8%. The “Migration of FRP-1/CD98/4F2hc expression of macrophage fraction by FACScan (migration rate %), monoclonal antibody HBJ-127 (CD98)” value (FRP-1/CD98/4F2hc; [8]) was 11.0%, the “expression of FRP-1/CD98/4F2hc on macrophage fraction of human PBMC (in words)” value (FRP-1/CD98/4F2hc; stimulated and cultured with LPS, summary of Table 1) was “increased the expression” and the “Change in HAT expressed on large-monocyte fraction of human PBMC (peak value by FACScan), 4F2hc” value (4F2hc [1]; human PBMC + LPS 80 μg/ml, 6-day culture, test compound 10 nM, solvent control 23) was 10. The “amount of 4F2hc in the heavy chain of HAT (in words)” value (“amount of 4F2hc” for short) (4F2hc [1]; [9]) was “selectively decreased”, the “Change in HAT expressed on large-monocyte fraction of human PBMC (peak value by FACScan), rBAT” value (rBAT [2]; human PBMC + LPS 80 μg/ml, 6-day culture, test compound 10 nM, solvent control 37) was 40 and the “amount of rBAT (in words)” value (rBAT [2]; [9]) was “without any influence”. The “Change in HAT expressed on large-cell fraction of THP-1 (peak value by FACScan), 4F2hc” value (4F2hc [3]; THP-1 + LPS 80 μg/ml, fetal bovine serum, test compound 100 nM, solvent control 12) was 25, the “amount of 4F2hc” value (4F2hc [3]; THP-1 + LPS, summary of Table 3) was “remarkably changed” and the “Change in HAT expressed on large-cell fraction of THP-1 (peak value by FACScan), 4F2hc” value (4F2hc [4]; THP-1 + human recombinant interferon γ 100 ng/ml, test compound 100 nM, solvent control 16) was 10. For the same molecule, the “amount of 4F2hc” value (4F2hc [4]; [10]) was “selectively decreased”, the “Change in HAT expressed on large-cell fraction of THP-1 (peak value by FACScan), rBAT” value (rBAT [5]; THP-1 + human recombinant interferon γ 100 ng/ml, test compound 100 nM, solvent control 55) was 50 and the “amount of rBAT (in words)” value (rBAT [5]; [10]) was “without any influence”. The “Albumin Excretion, Day 6” value ([6]; group average) was 98.3 mg/day, the “Albumin Excretion, Day 12” value ([6]; group average) was 182.6 mg/day and the “Albumin Excretion, Day 19” value ([6]; group average) was 101.0 mg/day. The “Urinary Albumin Excretion/Urinary Creatinine, Day 6” value ([6]; group average) was 16.7 1/Cr, the “Urinary Albumin Excretion/Urinary Creatinine, Day 12” value ([6]; group average) was 29.1 1/Cr and the “Urinary Albumin Excretion/Urinary Creatinine, Day 19” value ([6]; group average) was 15.8 1/Cr. For the same molecule, the “Urinary Albumin Excretion/Urinary Creatinine, Day 6” value ([6]; individual animal) was 12.1 1/Cr and 21.2 1/Cr, the “Urinary Albumin Excretion/Urinary Creatinine, Day 12” value ([6]; individual animal) was 22.3 1/Cr and 35.8 1/Cr and the “Urinary Albumin Excretion/Urinary Creatinine, Day 19” value ([6]; individual animal) was 11.0 1/Cr and 20.5 1/Cr. The “Albumin Excretion, Day 6” value ([6]; individual animal, 24-hour urine, day 6 after puromycin, compound 30 mg/kg/day s.c., 30 mg/kg/day) was 80.7 mg/day and 115.9 mg/day, the “Albumin Excretion, Day 12” value ([6]; individual animal, 24-hour urine, day 12 after puromycin, compound 30 mg/kg/day s.c., 30 mg/kg/day) was 136.0 mg/day and 229.1 mg/day and the “Albumin Excretion, Day 19” value ([6]; individual animal, 24-hour urine, day 19 after puromycin, compound 30 mg/kg/day s.c., 30 mg/kg/day) was 73.4 mg/day and 128.6 mg/day. For the same molecule, the “known action on glomerular lesions” value [7] was “selectively inhibit the glomerular lesions”.
